According to PubChem BioAssay (NCI):
Several values for one entry are separate records, joined by “and”; a condition that tells them apart may be missing. Equal values may be shown once.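 Method: 48-hour compound exposure of cells in 96-well plates, five concentrations, linear interpolation of endpoints. GI50 = concentration required for 50% inhibition of growth. Definition used: TGI = concentration required for complete inhibition of growth.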

Key:
Experiment in all cases: NCI tumour cell line growth inhibition, 48 h
[1] = system: SK-OV-3 ovarian
[2] = system: UACC-257 melanoma
[3] = system: SF-295 CNS
[4] = system: RPMI-8226 leukemia
[5] = system: HCT-15 colon
[6] = system: M14 melanoma
[7] = system: MOLT-4 leukemia
[8] = system: NCI-H460 lung
[9] = system: MDA-MB-435
[10] = system: NCI/ADR-RES ovarian

`COc1cc2nncc(Sc3cnnc4ccccc34)c2cc1OC` showed a TGI [1] of 76.6 µM, a TGI [2] of 68 µM and a TGI [3] of 91.6 µM. The TGI [4] was 77.7 µM, the TGI [5] was 72.2 µM and the TGI [6] was > 100 µM. It also gave a TGI [7] of 54.5 µM and a TGI [8] of 50.4 µM.

In the case of `CC1=C(C(=O)NC2CCCCC2)CC(C(=O)NC2CCCCC2)=C(C)N1`, the TGI [1] is reported as > 100 µM, the TGI [2] is reported as > 100 µM and the TGI [9] is reported as > 100 µM. For the same molecule, the TGI [3] was > 100 µM, the TGI [4] was > 100 µM and the TGI [5] was > 100 µM. The TGI [6] was > 100 µM, the TGI [7] was > 100 µM and the TGI [8] was > 100 µM.

With `CC(C)N(C(C)C)[PH+]1O[PH+](N(C(C)C)C(C)C)O[PH+](N(C(C)C)C(C)C)O[PH+](N(C(C)C)C(C)C)O[PH+](N(C(C)C)C(C)C)O1.[C-]#[O+].[C-]#[O+].[C-]#[O+].[C-]#[O+].[C-]#[O+].[C-]#[O+].[C-]#[O+].[Cr].[Cr]` (stereo unspecified) the GI50 [1] was > 100 µM, the TGI [1] was > 100 µM and the GI50 [2] was > 100 µM. For the same molecule, the TGI [2] was > 100 µM, the GI50 [3] was > 100 µM and the TGI [3] was > 100 µM. For the same molecule, the GI50 [4] was > 100 µM, the TGI [4] was > 100 µM and the GI50 [5] was > 100 µM. For the same molecule, the TGI [5] was > 100 µM, the GI50 [6] was > 100 µM and the TGI [6] was > 100 µM. For the same molecule, the GI50 [7] was > 100 µM, the TGI [7] was > 100 µM and the GI50 [8] was > 100 µM. The TGI [8] was > 100 µM.

For `COC(=O)c1nc(NN)[nH]c(=O)c1CCCCCc1c(C(=O)OC)[nH]c(NN)cc1=O`, the TGI [1] was > 100 µM, the TGI [2] was > 100 µM and the TGI [3] was > 100 µM. For the same molecule, the TGI [4] was > 100 µM, the TGI [5] was > 100 µM and the TGI [6] was > 100 µM. For the same molecule, the TGI [7] was > 100 µM and the TGI [8] was > 100 µM.

With `CC(C)c1cccc(C(C)C)c1NC(=O)C(=O)C(C(=O)c1ccccc1-c1ccccc1)C1OC(=O)c2ccccc21` (stereo unspecified) the TGI [2] was 29.9 µM, the TGI [3] was 37.6 µM and the TGI [4] was > 100 µM. For the same molecule, the TGI [5] was 44.5 µM, the TGI [7] was 74.1 µM and the TGI [8] was 36.5 µM.

In the case of `Cc1nc2c(n1CC(C)(C)C)C(=O)c1ccccc1C2=O`, the TGI [1] is reported as > 100 µM, the TGI [2] is reported as > 100 µM and the TGI [3] is reported as > 100 µM. For the same molecule, the TGI [5] was > 100 µM, the TGI [6] was > 100 µM and the TGI [7] was > 100 µM. For the same molecule, the TGI [8] was > 100 µM.

For `N=C(N)SCc1cn2ccccc2n1`, the TGI [2] was > 100 µM, the TGI [3] was > 100 µM and the TGI [4] was > 100 µM. For the same molecule, the TGI [5] was > 100 µM, the TGI [6] was > 100 µM and the TGI [7] was > 100 µM. The TGI [8] was > 100 µM.

`CC(O)CNC1=CC(=O)C(=O)c2ccccc21` (stereo unspecified) was tested, and the TGI [1] was > 100 µM, the TGI [2] was 30.3 µM and the TGI [9] was 23.9 µM. For the same molecule, the TGI [3] was 27 µM, the TGI [4] was 48 µM and the TGI [5] was 33.6 µM. For the same molecule, the TGI [6] was 32.1 µM, the TGI [7] was 59.9 µM and the TGI [8] was 30.6 µM.

In the case of `Cc1cccc(NC(=O)c2sc3nc4c(cc3c2N)CCCC4)c1C`, the GI50 [1] is reported as 0.581 µM, the TGI [1] is reported as > 100 µM and the GI50 [2] is reported as > 100 µM. For the same molecule, the TGI [2] was > 100 µM, the GI50 [9] was 0.115 µM and the TGI [9] was 0.391 µM. For the same molecule, the GI50 [3] was 0.516 µM, the TGI [3] was > 100 µM and the GI50 [4] was 0.354 µM. For the same molecule, the TGI [4] was > 100 µM, the GI50 [5] was 0.363 µM and the TGI [5] was > 100 µM. For the same molecule, the GI50 [6] was 0.355 µM, the TGI [6] was > 100 µM and the GI50 [7] was 0.455 µM. For the same molecule, the TGI [7] was > 100 µM, the GI50 [8] was 0.369 µM and the TGI [8] was > 100 µM.

In the case of `COc1cc(C2c3cc4c(cc3[C@@H](Nc3ccc(N(C)C)cc3)[C@H]3COC(=O)C23)OCO4)cc(OC)c1O` (stereo partly specified), the GI50 [1] is reported as 0.279 µM, the TGI [1] is reported as 2.23 µM and 5.72 µM and the GI50 [2] is reported as 10.2 µM. For the same molecule, the TGI [2] was 11.2 µM and 28.8 µM, the GI50 [3] was 0.223 µM and the TGI [3] was 0.483 µM and 1.47 µM. For the same molecule, the GI50 [5] was 1.82 µM, the TGI [5] was 8.16 µM and 11.3 µM and the GI50 [6] was 1.44 µM. The TGI [6] was 8.61 µM and 16.2 µM, the GI50 [7] was < 0.0075 µM and the GI50 [8] was < 0.0075 µM. The TGI [8] was 1.88 µM and 10.4 µM.

In the case of `COc1cc(Nc2ccnc(N3CCN(c4ccnc5cc(Cl)ccc45)CC3)n2)cc(OC)c1`, the GI50 [1] is reported as 3.17 µM, the TGI [1] is reported as > 36.3 µM and the GI50 [2] is reported as 3.35 µM. For the same molecule, the TGI [2] was > 100 µM, the GI50 [9] was 0.209 µM and the TGI [9] was 0.626 µM. For the same molecule, the GI50 [10] was 1.1 µM, the TGI [10] was 5.47 µM and the GI50 [3] was 0.289 µM. For the same molecule, the TGI [3] was 2.13 µM, the GI50 [5] was 0.109 µM and the TGI [5] was > 100 µM. The GI50 [8] was 1.51 µM and the TGI [8] was > 100 µM.

In the case of `CC[C@H](C)[C@H](NC(=O)c1cnccn1)C(=O)N(C)[C@H](C[C@@H](OC(C)=O)c1nc(C(=O)N[C@@H](Cc2ccccc2)C[C@H](C)C(=O)OC)cs1)C(C)C`, the GI50 [1] is reported as 1.95 µM, the TGI [1] is reported as > 33.3 µM and the GI50 [2] is reported as 5.21 µM. The TGI [2] was 22.1 µM, the GI50 [10] was 2.81 µM and the TGI [10] was > 33.3 µM. For the same molecule, the GI50 [3] was 1.03 µM, the TGI [3] was > 33.3 µM and the GI50 [4] was 1.07 µM. The TGI [4] was > 33.3 µM, the GI50 [5] was 1.06 µM and the TGI [5] was > 33.3 µM. For the same molecule, the GI50 [6] was 0.81 µM, the TGI [6] was 2.76 µM and the GI50 [7] was 2.23 µM. The TGI [7] was > 33.3 µM, the GI50 [8] was 1.15 µM and the TGI [8] was > 33.3 µM.

`CSc1nc2c(c(O)c(C)c(=O)n2C2OC(COC(C)=O)C(OC(C)=O)C(OC(C)=O)C2OC(C)=O)c(=O)n1C` (stereo unspecified) was tested, and the TGI [1] was > 100 µM, the TGI [2] was > 100 µM and the TGI [3] was > 100 µM. For the same molecule, the TGI [4] was > 100 µM, the TGI [5] was > 100 µM and the TGI [6] was > 100 µM. The TGI [8] was > 100 µM.

In the case of `O=C(C(=O)c1ccc(Cc2ccc(C(=O)C(=O)c3ccccc3)cc2)cc1)c1ccccc1`, the TGI [1] is reported as > 100 µM, the TGI [2] is reported as > 100 µM and the TGI [3] is reported as > 100 µM. For the same molecule, the TGI [5] was > 100 µM, the TGI [6] was > 100 µM and the TGI [8] was > 100 µM.

For `CC(CO)[C@H]1OC(=O)C=C2[C@@]13O[C@@H]3[C@H]1OC(=O)[C@@]3(C)[C@H]4O[C@H]4C[C@@]2(C)[C@@H]13` (stereo partly specified), the TGI [1] was > 57 µM, the TGI [2] was > 26.1 µM and the TGI [9] was 18.4 µM. For the same molecule, the TGI [3] was > 33.4 µM, the TGI [4] was 8.75 µM and the TGI [5] was > 31 µM. The TGI [6] was > 22.8 µM, the TGI [7] was 3.65 µM and the TGI [8] was > 24.4 µM.

In the case of `Cc1ccc(C(=O)/C(=C/c2ccc([N+](=O)[O-])cc2)S(=O)Cc2ccccc2)cc1` (stereo unspecified), the GI50 [1] is reported as 3.46 µM, the TGI [1] is reported as 12.5 µM and the GI50 [2] is reported as 1.65 µM. The TGI [2] was 3.08 µM, the GI50 [9] was 1.47 µM and the TGI [9] was 3.04 µM. The GI50 [10] was 2.46 µM, the TGI [10] was > 100 µM and the GI50 [3] was 2.45 µM. It also gave a TGI [3] of 5.96 µM, a GI50 [4] of 0.404 µM and a TGI [4] of 2.35 µM. The GI50 [5] was 1.07 µM, the TGI [5] was 2.59 µM and the GI50 [6] was 1.48 µM. It also gave a TGI [6] of 2.94 µM, a GI50 [8] of 1.83 µM and a TGI [8] of 4.92 µM.

For `O=c1nc(-c2ccccc2)c2c3c(cccn13)CCC2`, the TGI [1] was > 100 µM, the TGI [2] was > 100 µM and the TGI [3] was > 100 µM. The TGI [4] was > 100 µM, the TGI [5] was > 100 µM and the TGI [6] was > 100 µM. The TGI [7] was > 100 µM and the TGI [8] was > 100 µM.

With `O=C1c2ccccc2N2OC3(N4CCCC4)CCCC3C12c1ccccc1` (stereo unspecified) the TGI [1] was > 100 µM, the TGI [2] was > 100 µM and the TGI [3] was > 100 µM. The TGI [4] was > 100 µM, the TGI [5] was > 100 µM and the TGI [6] was > 100 µM. For the same molecule, the TGI [7] was > 100 µM.

With `CC(=O)N(CCN)CCN` the TGI [1] was > 100 µM, the TGI [2] was > 10 µM and the TGI [3] was > 10 µM. For the same molecule, the TGI [4] was > 10 µM, the TGI [5] was > 100 µM and the TGI [6] was > 10 µM. The TGI [7] was > 10 µM and the TGI [8] was > 10 µM.
